In PubChem BioAssay AID248 (DTP/NCI, 2004):
Toxic doses and inconclusive results are not listed. Rule as the data show it: active = T/C of 150% or more; inactive = T/C below 125%.

Test system: L1210 leukemia ip in BDF1 mice, survival T/C
Experiment: NCI In Vivo Anticancer Drug Screen. Data for tumor model L1210 Leukemia (intraperitoneal) in B6D2F1 (BDF1) mice
Conditions: endpoint: mean survival time, higher = longer survival
Procedure, shortened: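 Mice bearing the transplanted tumor received compound or vehicle. Survival of the treated group was divided by that of the vehicle-treated control group to give the ratio.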

[1] = dose: 100.0 mg/kg/injection, schedule: Q01DX009 (ip), vehicle: saline with Tween-80
[2] = dose: 200.0 mg/kg/injection, schedule: Q01DX009 (ip), vehicle: saline with Tween-80
[3] = dose: 400.0 mg/kg/injection, schedule: Q01DX009 (ip), vehicle: saline with Tween-80
[4] = dose: 100.0 mg/kg/injection, schedule: Q01DX009 (ip), vehicle: Klucel (hydroxypropylcellulose) (HPC)
[5] = dose: 200.0 mg/kg/injection, schedule: Q01DX009 (ip), vehicle: Klucel (hydroxypropylcellulose) (HPC)
[6] = dose: 400.0 mg/kg/injection, schedule: Q01DX009 (ip), vehicle: Klucel (hydroxypropylcellulose) (HPC)
[7] = dose: 50.0 mg/kg/injection, schedule: Q01DX009 (ip), vehicle: saline with Tween-80

Measured: T/C

CN(C)C(=O)NNC(=O)N(C)C
inactive: dose: 100.0 mg/kg/injection, schedule: Q01DX009 (ip), vehicle: saline 103 % of control | dose: 100.0 mg/kg/injection, schedule: Q04DX003 (ip), vehicle: saline 94 % of control | dose: 200.0 mg/kg/injection, schedule: Q01DX009 (ip), vehicle: saline 95 % of control | dose: 200.0 mg/kg/injection, schedule: Q04DX003 (ip), vehicle: saline 96 % of control | dose: 400.0 mg/kg/injection, schedule: Q01DX009 (ip), vehicle: saline 95 % of control | dose: 400.0 mg/kg/injection, schedule: Q04DX003 (ip), vehicle: saline 100 % of control

C=CCS(=O)(=O)CC=C
inactive: [1] 92 % of control | [2] 92 % of control | [3] 93 % of control

O=C(Nc1ccccc1)Nc1cccc([N+](=O)[O-])c1
inactive: dose: 100.0 mg/kg/injection, schedule: Q04DX002 (ip), vehicle: saline 100 % of control | dose: 200.0 mg/kg/injection, schedule: Q04DX002 (ip), vehicle: saline 92 % of control | dose: 400.0 mg/kg/injection, schedule: Q04DX002 (ip), vehicle: saline 103 % of control

Cc1cccc(C[P+](C/C=C/c2ccccc2)(c2ccccc2)c2ccccc2)c1
inactive: dose: 6.25 mg/kg/injection, schedule: Q04DX003 (ip), vehicle: Klucel (hydroxypropylcellulose) (HPC) 92 % of control | dose: 12.5 mg/kg/injection, schedule: Q04DX003 (ip), vehicle: Klucel (hydroxypropylcellulose) (HPC) 92 % of control

COc1ccc2[nH]c(=O)ccc2c1
inactive: dose: 300.0 mg/kg/injection, schedule: Q01DX001 (ip), vehicle: Klucel (hydroxypropylcellulose) (HPC) 98 % of control

CN(C)c1ccc(C(=C2C=CC(=[N+](C)C)C=C2)c2ccccc2Cl)cc1
inactive: dose: 50.0 mg/kg/injection, schedule: Q01DX001 (ip), vehicle: saline 92 % of control | dose: 100.0 mg/kg/injection, schedule: Q01DX001 (ip), vehicle: saline 92 % of control

Fc1ccc(F)c(-c2c(F)ccc(F)c2F)c1F
inactive: dose: 25.6 mg/kg/injection, schedule: Q04DX002 (ip), vehicle: saline with Tween-80 100 % of control | dose: 64.0 mg/kg/injection, schedule: Q04DX002 (ip), vehicle: saline with Tween-80 113 % of control | dose: 160.0 mg/kg/injection, schedule: Q04DX002 (ip), vehicle: saline with Tween-80 95 % of control | dose: 400.0 mg/kg/injection, schedule: Q04DX002 (ip), vehicle: saline with Tween-80 103 % of control

Clc1ccc(/C=C2\c3ccccc3-c3nc4ccccc4nc32)cc1
inactive: dose: 75.0 mg/kg/injection, schedule: Q04DX003 (ip), vehicle: saline 91 % of control | dose: 150.0 mg/kg/injection, schedule: Q04DX003 (ip), vehicle: saline 88 % of control

O=[N+]([O-])c1cccc(/C=N/NC(=S)Nc2ccccc2)c1
inactive: [4] 89 % of control | [5] 93 % of control

CC1(C)C(c2ccccc2)=NN=C1c1ccccc1
inactive: [1] 93 % of control | dose: 100.0 mg/kg/injection, schedule: Q04DX003 (ip), vehicle: saline with Tween-80 90 % of control | [2] 91 % of control | dose: 200.0 mg/kg/injection, schedule: Q04DX003 (ip), vehicle: saline with Tween-80 104 % of control | [3] 112 % of control | dose: 400.0 mg/kg/injection, schedule: Q04DX003 (ip), vehicle: saline with Tween-80 104 % of control

O=C(/C=C/c1ccccc1)Nc1ccc(Cl)cc1C(=O)c1ccccc1
inactive: [4] 102 % of control | [5] 97 % of control | [6] 94 % of control

Cc1cc(O)c2c(c1)OC(C)(C)C1=C2CC(C)CC1 (centres undefined)
inactive: dose: 75.0 mg/kg/injection, schedule: Q01DX009 (ip), vehicle: Klucel (hydroxypropylcellulose) (HPC) 96 % of control | dose: 150.0 mg/kg/injection, schedule: Q01DX009 (ip), vehicle: Klucel (hydroxypropylcellulose) (HPC) 92 % of control | dose: 300.0 mg/kg/injection, schedule: Q01DX009 (ip), vehicle: Klucel (hydroxypropylcellulose) (HPC) 101 % of control

CC(C)(CO)CN1CCCCC1
inactive: [7] 93 % of control | [1] 93 % of control

CC(=O)OC1CCC2(C)C(CCC3C2CCC2(C)C(C(C)O)CCCC32)C1 (centres undefined)
inactive: dose: 100.0 mg/kg/injection, schedule: Q01DX001 (ip), vehicle: Klucel (hydroxypropylcellulose) (HPC) 88 % of control | dose: 200.0 mg/kg/injection, schedule: Q01DX001 (ip), vehicle: Klucel (hydroxypropylcellulose) (HPC) 98 % of control

O=[N+]([O-])c1ccc(S(=O)(=O)C2CCCCC2Cl)cc1 (centres undefined)
inactive: [4] 88 % of control | [5] 91 % of control | [6] 90 % of control

c1ccc(-c2cc(-c3ccccc3)cc(-c3ccccc3)c2)cc1
inactive: dose: 1.56 mg/kg/injection, schedule: Q01DX009 (ip), vehicle: saline 98 % of control | dose: 3.12 mg/kg/injection, schedule: Q01DX009 (ip), vehicle: saline 95 % of control | dose: 6.25 mg/kg/injection, schedule: Q01DX009 (ip), vehicle: saline 93 % of control

CC1COC(C(C)C)O1 (centres undefined)
inactive: dose: 50.0 mg/kg/injection, schedule: Q01DX009 (ip), vehicle: acetone 90 % of control | dose: 100.0 mg/kg/injection, schedule: Q01DX009 (ip), vehicle: acetone 97 % of control | dose: 100.0 mg/kg/injection, schedule: Q04DX003 (ip), vehicle: acetone 95 % of control | dose: 200.0 mg/kg/injection, schedule: Q01DX009 (ip), vehicle: acetone 95 % of control | dose: 200.0 mg/kg/injection, schedule: Q04DX003 (ip), vehicle: acetone 103 % of control | dose: 400.0 mg/kg/injection, schedule: Q04DX003 (ip), vehicle: acetone 90 % of control

CC(C)C(CN=C(N)N)c1cccc2ccccc12 (centres undefined)
inactive: dose: 12.5 mg/kg/injection, schedule: Q01DX009 (ip), vehicle: saline with Tween-80 100 % of control | dose: 25.0 mg/kg/injection, schedule: Q01DX009 (ip), vehicle: saline with Tween-80 103 % of control | dose: 25.0 mg/kg/injection, schedule: Q04DX002 (ip), vehicle: saline with Tween-80 100 % of control | [7] 91 % of control | dose: 50.0 mg/kg/injection, schedule: Q04DX002 (ip), vehicle: saline with Tween-80 100 % of control

O=C(CCN1CC1)Nc1ccc(Cc2ccc(NC(=O)CCN3CC3)cc2)cc1
inactive: dose: 20.0 mg/kg/injection, schedule: Q04DX003 (ip), vehicle: Klucel (hydroxypropylcellulose) (HPC) 101 % of control | dose: 40.0 mg/kg/injection, schedule: Q04DX003 (ip), vehicle: Klucel (hydroxypropylcellulose) (HPC) 117 % of control | dose: 80.0 mg/kg/injection, schedule: Q04DX003 (ip), vehicle: Klucel (hydroxypropylcellulose) (HPC) 106 % of control

O=C(NN(c1ccc([N+](=O)[O-])cc1)c1ccc([N+](=O)[O-])cc1)c1ccccc1
inactive: dose: 50.0 mg/kg/injection, schedule: Q01DX009 (ip), vehicle: Klucel (hydroxypropylcellulose) (HPC) 103 % of control | [4] 100 % of control | dose: 100.0 mg/kg/injection, schedule: Q04DX003 (ip), vehicle: Klucel (hydroxypropylcellulose) (HPC) 94 % of control | [5] 102 % of control | dose: 200.0 mg/kg/injection, schedule: Q04DX003 (ip), vehicle: Klucel (hydroxypropylcellulose) (HPC) 93 % of control | [6] 102 % of control | dose: 400.0 mg/kg/injection, schedule: Q04DX003 (ip), vehicle: Klucel (hydroxypropylcellulose) (HPC) 94 % of control

COc1ccc([N+](=O)[O-])cc1NC(C)=O
inactive: dose: 100.0 mg/kg/injection, schedule: Q01DX001 (ip), vehicle: carboxymethylcellulose (CMC) 99 % of control | dose: 200.0 mg/kg/injection, schedule: Q01DX001 (ip), vehicle: carboxymethylcellulose (CMC) 99 % of control | dose: 400.0 mg/kg/injection, schedule: Q01DX001 (ip), vehicle: carboxymethylcellulose (CMC) 99 % of control

c1cc2cnc3cccc4cnc(c1)c2c43
inactive: dose: 100.0 mg/kg/injection, schedule: Q04DX003 (ip), vehicle: saline sonified 105 % of control | dose: 200.0 mg/kg/injection, schedule: Q04DX003 (ip), vehicle: saline sonified 95 % of control | dose: 400.0 mg/kg/injection, schedule: Q04DX003 (ip), vehicle: saline sonified 97 % of control
